Data taken from paper PMC12905488, “De novo cyclic peptides allow visualisation of the monomeric and functional amyloid conformations of the kinase RIPK3” (Biochemical Journal, 2026).
Where a SMILES comes first, the peptide text is derived from it. Bridges are numbered along the chain shown (N, C = ends).

Assays:
HT-29 cells = assay: Confocal imaging of labelled peptides in fixed, permeabilised HT-29 cells; format: cell-based, human; details: 10 nM labelled peptide, 30 min, cells untreated (DMSO), apoptosis (TNF + BV-6) or necroptosis (TSZ), 6 h, washed
Method: HT-29 cells grown in TC treated T175 flasks (Corning^TM) were aspirated, washed once with RT DPBS then trypsinised with 0.3 vol warmed trypsin EDTA for 3–5 min at 37 °C twice. Trypsin was quenched with 0.7 vol warmed D10 and then the mixture was centrifuged 400×g at RT for 5 min. Supernatant was discarded, then cells were resuspended in warm supplemented DMEM. A small sample was diluted 1:10 in trypan blue and loaded onto a haemocytometer for cell counting, then the cell suspension was diluted in warmed DMEM to 8.5 × 10^4 cells/ml. Cells were seeded onto a 96-well clear bottom PhenoPlate (Revvity) coated in a collagen I matrix at 1.7 × 10^4 cells/well and incubated at 37 °C in 5% CO2 overnight.
CellTracker^TM Orange CMRA (Invitrogen) was diluted to 5 μM in DMEM and warmed to 37 °C. HT-29 cells were washed once in DPBS, then CellTracker^TM Orange (50 μl) was added to each well (excluding wells to be incubated with Alexa Fluor 594-labelled control peptide) and incubated at 37 °C in 5% CO2 for 45 min. Following incubation, CellTracker^TM Orange solution was aspirated and replaced with 150 μl D10. […]
Imaging was performed on an Opera Phenix (PerkinElmer) at 63X magnification (water immersion) in confocal mode using the parameters given below. […] Intensity thresholds were adjusted as indicated to remove background fluorescence based on control wells for image exports. […] Cell counts were identified using DAPI stain (Method C) and cytoplasm identified by CellTracker^TM Orange stain (Method B), and all subsequent analysis was conducted on Cy5 fluorescence detected within cells as determined by these parameters. Total Cy5 intensity analysis, as well as spot analysis (spots detected using Method B), was performed measuring number of detected spots, mean spot size (px^2) and spot fluorescence intensity (corrected and relative). […] Statistical significance between untreated, apoptosis and necroptosis induced conditions and between no peptide controls was determined by 2-way ANOVA testing using Tukey’s multiple comparisons tests.

[1] = Turbidity assay (absorbance at 350 nm); format: physicochemical; details: qualitative, tetra-lysine-tagged compared with K* peptide
Method: Solutions with appropriate buffering agent at pH 4.0–8.0 as specified, NaCl as required and containing 40 μM ThT were prepared in Corning^TM black clear bottom 96-well plates (cat no. 3631). Peptides and proteins were diluted from concentrated stocks into buffer immediately prior to measurement. […] Plates were sealed with optically clear sealing film (Corning^TM, cat no. 6575) and loaded into a BMG POLARstar Omega microplate reader maintained at RT or 37 °C. Plates were shaken for 30 s at 700 rpm before first read (unless otherwise specified), and wells were excited at 440 nm, with fluorescence emission measured at 480 nm (filters +/– 10 nm). The gain was set at 1–5% from a buffer and ThT-containing sample. Assays were continued until fluorescence emission plateaued. Turbidity assays were performed concurrently to ThT assays, with absorbance at 350 nm measured after ThT emission measurement.

SMILES | presence/binding of labelled peptide in fixed, permeabilised cells (HT-29 cells) | solubility [1]
CC[C@H](C)[C@@H]1NC(=O)[C@H](Cc2ccc(O)cc2)NC(=O)CSC[C@@H](C(=O)N[C@@H](Cc2c[nH]c3ccccc23)C(=O)N[C@H](C(=O)N[C@@H](Cc2c[nH]c3ccccc23)C(=O)N[C@@H](CC(C)C)C(=O)N[C@@H](CC(C)C)C(=O)N[C@@H](CO)C(=O)NCC(=O)N[C@@H](CCCCN)C(=O)N[C@@H](CCCCN)C(=O)N[C@@H](CCCCN)C(=O)N[C@@H](CCCCN)C(=O)O)C(C)C)NC(=O)[C@H](CCC(N)=O)NC(=O)[C@H](CC(=O)O)NC(=O)[C@H](Cc2ccc(O)cc2)NC(=O)[C@H](Cc2c[nH]c3ccccc23)NC(=O)[C@H](CCCNC(=N)N)NC(=O)[C@H](CC(C)C)NC(=O)[C@H](C(C)C)NC(=O)[C@H](CCC(=O)O)NC1=O [A4Ktag] ({CH2CO}-YIEVLRWYDQCWVWLLSGKKKK-OH; thioether N-11; C-terminus assumed) | observed inside all cells | 
CC[C@H](C)[C@@H]1NC(=O)[C@H](Cc2ccc(O)cc2)NC(=O)[C@H](CCCNC(=N)N)NC(=O)[C@H](CO)NC(=O)[C@H](Cc2c[nH]c3ccccc23)NC(=O)[C@@H]2CCCN2C(=O)[C@H](C(C)C)NC(=O)[C@H](CC(N)=O)NC(=O)[C@H](Cc2ccccc2)NC(=O)[C@H](Cc2ccc(O)cc2)NC(=O)CSC[C@@H](C(=O)NCC(=O)N[C@@H](CCCCN)C(=O)N[C@@H](CCCCN)C(=O)N[C@@H](CCCCN)C(=O)N[C@@H](CCCCN)C(=O)O)NC(=O)[C@H](Cc2ccc(O)cc2)NC(=O)[C@H](Cc2ccc(O)cc2)NC(=O)[C@H](C(C)C)NC(=O)[C@H](CO)NC(=O)[C@H](CC(C)C)NC1=O [A2Ktag] ({CH2CO}-YFNVPWSRYILSVYYCGKKKK-OH; thioether N-16; C-terminus assumed) | observed inside all cells | 
CC(C)C[C@H](NC(=O)[C@H](C)NC(=O)[C@H](Cc1ccc(O)cc1)NC(=O)[C@H](Cc1ccccc1)NC(=O)[C@H](CCCNC(=N)N)NC(=O)[C@H](CCCCN)NC(=O)[C@H](C)NC(=O)[C@H](CCCNC(=N)N)NC(=O)[C@H](CC(C)C)NC(=O)[C@@H](NC(=O)[C@@H]1CSCC(=O)N[C@@H](Cc2ccc(O)cc2)C(=O)N[C@@H](C(C)C)C(=O)N[C@@H](CC(C)C)C(=O)N1)[C@@H](C)O)C(=O)N[C@@H](Cc1ccccc1)C(=O)N[C@@H](CC(C)C)C(=O)N[C@@H](CO)C(=O)NCC(=O)N[C@@H](CCCCN)C(=O)N[C@@H](CCCCN)C(=O)N[C@@H](CCCCN)C(=O)N[C@@H](CCCCN)C(=O)O [A1Ktag] ({CH2CO}-YVLCTLRAKRFYALFLSGKKKK-OH; thioether N-4; C-terminus assumed) | observed inside all cells | increased solubility
